Laboratory results from ChEMBL document CHEMBL1145055, “A novel class of nonpeptidic biaryl inhibitors of human cathepsin K” (J Med Chem, 2003).

Assays:
Cathepsin K [1] = biological target: T1, Cathepsin K (Homo sapiens, UniProt P43235); experiment: In vitro inhibitory activity against human cathepsin K, using 2 uM of Z -Leu-Arg-AMC as substrate
T1 sequence (P43235 whole entry): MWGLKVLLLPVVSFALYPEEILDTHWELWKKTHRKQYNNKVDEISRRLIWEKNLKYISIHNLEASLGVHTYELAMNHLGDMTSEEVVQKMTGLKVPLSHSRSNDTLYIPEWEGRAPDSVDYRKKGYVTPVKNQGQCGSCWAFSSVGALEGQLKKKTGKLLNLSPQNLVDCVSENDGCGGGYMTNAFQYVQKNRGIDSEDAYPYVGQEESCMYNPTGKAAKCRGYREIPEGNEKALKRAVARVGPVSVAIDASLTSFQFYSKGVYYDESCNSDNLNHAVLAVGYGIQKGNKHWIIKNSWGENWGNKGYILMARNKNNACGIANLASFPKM

Cathepsin B = Cathepsin B (Homo sapiens, UniProt P07858); experiment: In vitro inhibitory activity against human cathepsin B, using 2 uM of Z -Leu-Arg-AMC as substrate
Procathepsin L = Procathepsin L (Homo sapiens, UniProt P07711); experiment: In vitro inhibitory activity against human cathepsin L, using 2 uM of Z -Leu-Arg-AMC as substrate
Sequence of Procathepsin L (P07711 whole entry): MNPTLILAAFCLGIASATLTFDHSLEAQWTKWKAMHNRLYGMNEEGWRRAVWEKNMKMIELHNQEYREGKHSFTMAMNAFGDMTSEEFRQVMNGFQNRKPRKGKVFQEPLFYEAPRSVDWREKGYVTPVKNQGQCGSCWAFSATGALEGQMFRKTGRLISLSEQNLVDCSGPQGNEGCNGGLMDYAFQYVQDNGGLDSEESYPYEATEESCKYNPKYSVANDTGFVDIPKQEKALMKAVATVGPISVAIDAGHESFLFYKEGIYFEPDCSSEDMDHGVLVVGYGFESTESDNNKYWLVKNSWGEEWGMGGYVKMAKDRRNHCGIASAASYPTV

Cathepsin S = Cathepsin S (Homo sapiens, UniProt P25774); experiment: In vitro inhibitory activity against human cathepsin S, using 2 uM of Z -Leu-Arg-AMC as substrate
Sequence of Cathepsin S (P25774 whole entry): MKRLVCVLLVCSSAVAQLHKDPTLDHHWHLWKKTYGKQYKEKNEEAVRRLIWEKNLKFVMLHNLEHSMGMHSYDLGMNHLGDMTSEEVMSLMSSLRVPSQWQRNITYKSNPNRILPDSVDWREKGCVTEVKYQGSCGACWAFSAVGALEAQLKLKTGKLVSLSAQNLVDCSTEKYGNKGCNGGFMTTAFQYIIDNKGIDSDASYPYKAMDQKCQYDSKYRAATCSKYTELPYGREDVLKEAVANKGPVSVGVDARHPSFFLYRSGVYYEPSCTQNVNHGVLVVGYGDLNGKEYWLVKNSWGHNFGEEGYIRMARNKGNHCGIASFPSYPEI

Bos taurus = species: Bos taurus; experiment: cells
Description: In vitro Bone resorption; measuring degradation of bovine bone by isolated osteoclasts

[2] = biological target: T2, Cathepsin K (Homo sapiens) (UniProt P43235); experiment: Pre steady state kinetic parameter K off was determined
T2 sequence (whole entry): T1 sequence (P43235 whole entry)

Cathepsin K [3] = biological target: T1, Cathepsin K; experiment: In vitro inhibitory activity against Human Cathepsin K using 2 uM of Z -Leu-Arg-AMC as substrate

SMILES	IC50 (Cathepsin K [1])	IC50 (Cathepsin B)	IC50 (Procathepsin L)	IC50 (Cathepsin S)	IC50 (Bos taurus)	k off [2]	Ki (Cathepsin K [3])
CC(C)CC(C(=O)NCC#N)c1cccc(-c2ccc(N3CCNCC3)cc2)c1 (racemic)	0.009 µM	2.41 µM	4.8 µM	1.24 µM	0.162 µM		
CC(C)CC(C(=O)NC1(C#N)CC1)c1cccc(-c2ccc(N3CCNCC3)cc2)c1 (stereo not given)	0.003 µM					0.0014 s⁻¹	0.01 µM
CC(C)CC(C(=O)NCC#N)c1csc(-c2ccccc2)n1 (stereo not given)	1.46 µM	> 10 µM	> 10 µM	> 10 µM			
CC(C)CC(C(=O)NCC#N)c1cccc(-c2ccc(C3=CCNCC3)cc2)c1 (stereo not given)	0.057 µM	0.554 µM	1.68 µM	0.652 µM	0.267 µM		
CC(C)CC(C(=O)NCC#N)c1cccc(-c2cncnc2)c1 (stereo not given)	1.04 µM	> 10 µM	> 10 µM	> 10 µM			
CN1CCN(c2ccc(-c3cccc(C(Cc4ccccc4)C(=O)NCC#N)c3)cc2)CC1 (stereo not given)	1.4 µM	> 10 µM	3.91 µM	> 10 µM			
CC(C)C[C@@H](C(=O)NCC#N)c1cccc(-c2ccc(N3CCN(C)CC3)cc2)c1	0.006 µM	2.6 µM	6.27 µM	3.93 µM	0.096 µM		
CC(C)C[C@@H](C(=O)NCC#N)c1cccc(-c2ccc3[nH]ccc3c2)c1	0.008 µM						
CC(C)CC(C(=O)NCC#N)c1cccc(-c2ccc(C(N)=O)cc2)c1 (stereo not given)	1.02 µM	> 10 µM	> 10 µM	1.37 µM			
CC(C)CC(C(=O)NCC#N)c1cccc(-c2ccc(N3CCN(C(C)(C)C)CC3)cc2)c1 (stereo not given)	0.02 µM	0.379 µM	1.67 µM	8.34 µM	0.34 µM		
CC(C)CC(C(=O)NCC#N)c1cccc(-c2ccc(N3CCN(C(=O)OC(C)(C)C)CC3)cc2)c1 (stereo not given)	0.922 µM	> 10 µM	> 10 µM	1.3 µM			
CC(C)CC(C(=O)NCC#N)c1cccc(-c2ccc(C34CCN(CC3)CC4)cc2)c1 (stereo not given)	0.037 µM	2.23 µM	2.24 µM	1.99 µM	0.198 µM		
CN1CCN(c2ccc(-c3cccc(C(CC4CCC4)C(=O)NCC#N)c3)cc2)CC1 (stereo not given)	0.062 µM	8.05 µM	> 10 µM	2.31 µM			
CN1CCN(c2ccc(-c3cccc(C(CC4CC4)C(=O)NCC#N)c3)cc2)CC1 (stereo not given)	0.065 µM	3.43 µM	> 10 µM	6.6 µM			
CC(C)CC(C(=O)NCC#N)c1cccc(-c2cccnc2)c1 (stereo not given)	0.803 µM	> 10 µM	5.95 µM	8.04 µM			
CC(C)CC(C(=O)NCC#N)c1cccc(-c2ccc3cc[nH]c3c2)c1 (stereo not given)	0.291 µM	> 10 µM		1.26 µM	2.78 µM		
CC(C)CC(C(=O)NCC#N)c1cccc(-c2ccc(C3CNCCO3)cc2)c1 (stereo not given)	0.614 µM	> 10 µM	0.919 µM	3.37 µM	2.81 µM		
CC(C)CC(C(=O)NCC#N)c1cccc(-c2ccc(N3CCN(C)CC3)cc2)c1 (racemic)	0.008 µM	3.84 µM	4.64 µM	1.69 µM	0.078 µM		
CC(C)CC(C(=O)NCC#N)c1cccc(-c2ccc(N3CCN(CC(C)(C)N)CC3)cc2)c1 (stereo not given)	0.016 µM	> 10 µM	> 10 µM	1.43 µM	0.552 µM		
CC(C)CC(C(=O)NCC#N)c1cccc(-c2ccc(C3CCNCC3)cc2)c1 (stereo not given)	0.018 µM	1.07 µM	2.75 µM	1.42 µM	0.489 µM		
